The subject of one assay is pSTAT5/GM-CSF. Briefly: pSTAT5/GM-CSF cellular assay (JAK2 selectivity). The format is cell-based. To be noted: for Selectivity fold (TYK2/JAK2): pSTAT5/GM-CSF IC50 over pSTAT4/IL-12 IC50.
Assay [1] deals with JAK2, TYK2/p-STAT4 (Tyr693) activated by IL-12 in NK-92 cell line. The experiment in a line: IL-12-JAK2, TYK2/p-STAT4 (Tyr693) inhibition IC50 cellular assay. The format is cell-based. The settings on record: for IC50: NK92, Cellular assay, read-out: pSTAT4/IL-12 IC50; for Selectivity fold (TYK2/JAK2): Cellular assay, pSTAT5/GM-CSF IC50 vs pSTAT4/IL-12 IC50. A digest of the protocol: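 p-STAT4 (Tyr693) in lysates was measured by AlphaLISA SureFire Ultra after a 30 min IL-12 challenge (40 ng/ml final) at 37° C. Overnight-starved, IL-2-free NK-92 cells had been pretreated 1 h with compound at 10000 to 0.61 nM (4-fold, 8 points). IC50 values came from four-parameter logistic fitting.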

In assay [2] the target is T1, TYK2-JH2 (aa 575-869, in-house) protein (Homo sapiens, UniProt P29597).
T1 construct: TYK2-JH2 (aa 575-869, in-house) protein; made in house
The experiment in a line: TYK2-JH2 biochemical assay (HTRF probe displacement). The format is binding. The settings on record: Biochemical assay; read-out: TYK2-JH2 IC50. A digest of the protocol:
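HTRF probe-displacement format: compound dilutions (10 points, 5-fold, from 500 uM in DMSO at 500×) were combined with 0.2 nM TYK2-JH2 protein for 0.5 h at room temperature in HEPES pH 7.5 buffer with MgCl2, BSA, DTT and Brij-35. Percent inhibition came from the 615/665 nm fluorescence ratio, fitted to a four-parameter logistic for IC50.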

Here are results for 20 compounds from patent publication US20240043435A1, “TYK-2 INHIBITOR” (BEIGENE, LTD., priority 2020, published 2024).

T1 sequence (P29597 575-869): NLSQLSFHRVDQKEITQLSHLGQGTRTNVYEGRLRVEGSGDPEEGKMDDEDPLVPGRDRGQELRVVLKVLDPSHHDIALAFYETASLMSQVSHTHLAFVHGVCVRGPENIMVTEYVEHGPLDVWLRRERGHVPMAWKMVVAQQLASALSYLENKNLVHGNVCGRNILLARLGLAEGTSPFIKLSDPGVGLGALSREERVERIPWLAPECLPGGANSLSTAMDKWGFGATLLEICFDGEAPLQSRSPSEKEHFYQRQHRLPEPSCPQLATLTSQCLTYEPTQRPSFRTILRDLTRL

Regarding `CC(=O)Nc1cc(Nc2cc(OCCO)cc(S(C)(=O)=O)n2)c(-c2ccn(C)n2)cn1` [Example J15, N-(4-((4-(2-hydroxyethoxy)-6-(methylsulfonyl)pyridin-2-yl)amino)-5-(1-methyl-1H-pyrazol-3-yl)pyridin-2-yl)acetamide], the IC50 in the assay with pSTAT5/GM-CSF was more than 10000 nM; in assay [1], 5.9 nM; in assay [2] it was 0.016 nM. The “Selectivity fold (TYK2/JAK2)” value with pSTAT5/GM-CSF is given as more than 1694 fold.

On to `CC(=O)Nc1cc(Nc2cc(Oc3ccccc3)cc(S(C)(=O)=O)n2)c(-c2ccn(C)n2)cn1` [Example J39, N-(5-(1-methyl-1H-pyrazol-3-yl)-4-((6-(methylsulfonyl)-4-phenoxypyridin-2-yl)amino)pyridin-2-yl)acetamide], for which the IC50 was more than 10000 nM in the assay with pSTAT5/GM-CSF, 10.7 nM in assay [1] and 0.036 nM in assay [2]. Moreover, the “Selectivity fold (TYK2/JAK2)” value in the assay with pSTAT5/GM-CSF is more than 935 fold.

Turning to `CC(=O)Nc1cc(Nc2cc(Cl)cc(S(C)(=O)=O)n2)c(-c2ccn(C)n2)cn1` [Example J40, N-(4-((4-chloro-6-(methylsulfonyl)pyridin-2-yl)amino)-5-(1-methyl-1H-pyrazol-3-yl)pyridin-2-yl)acetamide], the IC50 in the assay with pSTAT5/GM-CSF is more than 10000 nM; in assay [1], 0.326 nM; in assay [2], 0.029 nM. Also, the “Selectivity fold (TYK2/JAK2)” value in the assay on pSTAT5/GM-CSF is reported as more than 30674 fold.

Regarding `CC(=O)Nc1cc(Nc2cc(OC(C)C)cc(S(C)(=O)=O)n2)c(-c2cc(C)n(C)n2)cn1` [Example N2, N-(5-(1,5-dimethyl-1H-pyrazol-3-yl)-4-((4-isopropoxy-6-(methylsulfonyl)pyridin-2-yl)amino)pyridin-2-yl)acetamide], the values for the IC50 (with pSTAT5/GM-CSF; in assay [1]; in assay [2]) were more than 10000 nM, 0.641 nM and 0.021 nM, respectively. The “Selectivity fold (TYK2/JAK2)” value with pSTAT5/GM-CSF is on record as more than 15600 fold.

With `CC(=O)Nc1cc(Nc2cc(OC[C@@H](C)O)cc(S(C)(=O)=O)c2)c(-c2ccn(C)n2)cn1` [Example J57, (R)-N-(4-((3-(2-hydroxypropoxy)-5-(methylsulfonyl)phenyl)amino)-5-(1-methyl-1H-pyrazol-3-yl)pyridin-2-yl)acetamide], the IC50 in the assay on pSTAT5/GM-CSF is more than 10000 nM; in assay [1], 15.3 nM; in assay [2], 0.045 nM. In addition, the “Selectivity fold (TYK2/JAK2)” value in the assay with pSTAT5/GM-CSF is reported as more than 653 fold.

As for `COCc1cc(Nc2cc(NC(C)=O)ncc2-c2ccn(C)n2)cc(S(C)(=O)=O)c1` [Example J34, N-(4-((3-(methoxymethyl)-5-(methylsulfonyl)phenyl)amino)-5-(1-methyl-1H-pyrazol-3-yl)pyridin-2-yl)acetamide], the IC50 with pSTAT5/GM-CSF is more than 10000 nM; in assay [1], 9.69 nM; in assay [2] it was 0.067 nM. The “Selectivity fold (TYK2/JAK2)” value in the assay on pSTAT5/GM-CSF is reported as more than 1031 fold.

For the compound `CC(=O)Nc1cc(Nc2cc(OCC(C)C)cc(S(C)(=O)=O)n2)c(-c2ccn(C)n2)cn1` [Example J59, N-(4-((4-isobutoxy-6-(methylsulfonyl)pyridin-2-yl)amino)-5-(1-methyl-1H-pyrazol-3-yl)pyridin-2-yl)acetamide], the IC50 with pSTAT5/GM-CSF was more than 10000 nM; in assay [1], 1.31 nM; in assay [2], 0.029 nM. Moreover, the “Selectivity fold (TYK2/JAK2)” value with pSTAT5/GM-CSF is listed as more than 7633 fold.

On to `CC(=O)Nc1cc(Nc2cc(C)cc(S(C)(=O)=O)n2)c(-c2ccc(OC(C)C)nn2)cn1` [Example A29, N-(5-(6-isopropoxypyridazin-3-yl)-4-((4-methyl-6-(methylsulfonyl)pyridin-2-yl)amino)pyridin-2-yl)acetamide], for which the IC50 in the assay on pSTAT5/GM-CSF was more than 10000 nM; in assay [1], 0.452 nM; in assay [2], 0.042 nM. In assay [1], the “Selectivity fold (TYK2/JAK2)” value is more than 22123 fold.

For `COc1cc(Nc2cc(NC(C)=O)ncc2-c2ccn(C)n2)nc(S(C)(=O)=O)c1` [Example J21, N-(4-((4-methoxy-6-(methylsulfonyl)pyridin-2-yl)amino)-5-(1-methyl-1H-pyrazol-3-yl)pyridin-2-yl)acetamide], the values for the IC50 (in the assay on pSTAT5/GM-CSF; in assay [1]; in assay [2]) were more than 10000 nM, 0.72 nM and 0.017 nM, respectively. Moreover, the “Selectivity fold (TYK2/JAK2)” value in the assay on pSTAT5/GM-CSF was more than 13888 fold.

`CC(=O)Nc1cc(Nc2cccc(S(N)(=O)=O)n2)c(-c2ccccn2)cn1` [Example B4, N-(4′-((6-sulfamoylpyridin-2-yl)amino)-[2,3′-bipyridin]-6′-yl)acetamide]: the values for the IC50 (with pSTAT5/GM-CSF; in assay [1]; in assay [2]) were more than 10000 nM, 2.53 nM and 0.019 nM, respectively. Further, in assay [1], the “Selectivity fold (TYK2/JAK2)” value is more than 3952 fold.

With `CCOc1cc(Nc2cc(NC(C)=O)ncc2-c2ccc(OCCOC)cn2)nc(S(C)(=O)=O)c1` [Example D9, N-(4′-((4-ethoxy-6-(methylsulfonyl)pyridin-2-yl)amino)-5-(2-methoxyethoxy)-[2,3′-bipyridin]-6′-yl)acetamide], the figures for the IC50 (in the assay with pSTAT5/GM-CSF; in assay [1]; in assay [2]) were more than 10000 nM, 0.479 nM and 0.021 nM, respectively. In assay [1], the “Selectivity fold (TYK2/JAK2)” value is reported as more than 20876 fold.

In the case of `COCCOc1ccc(-c2cnc(NC(C)=O)cc2Nc2cc(OC)cc(S(C)(=O)=O)n2)nc1` [Example D5, N-(4′-((4-methoxy-6-(methylsulfonyl)pyridin-2-yl)amino)-5-(2-methoxyethoxy)-[2,3′-bipyridin]-6′-yl)acetamide], the IC50 with pSTAT5/GM-CSF is more than 10000 nM; in assay [1], 0.99 nM; in assay [2], 0.036 nM. Also, in assay [1], the “Selectivity fold (TYK2/JAK2)” value is recorded as more than 10101 fold.

Take `CC(=O)Nc1cc(Nc2cc(OC[C@H](C)O)cc(S(C)(=O)=O)c2)c(-c2ccn(C)n2)cn1` [Example J55, (S)-N-(4-((3-(2-hydroxypropoxy)-5-(methylsulfonyl)phenyl)amino)-5-(1-methyl-1H-pyrazol-3-yl)pyridin-2-yl)acetamide]: the IC50 is more than 10000 nM with pSTAT5/GM-CSF, 11.4 nM in assay [1] and 0.033 nM in assay [2]. In addition, the “Selectivity fold (TYK2/JAK2)” value with pSTAT5/GM-CSF is listed as more than 878 fold.

Turning to `CC(=O)Nc1cc(Nc2cc(N3CCOCC3)cc(S(C)(=O)=O)n2)c(-c2ccc3c(n2)OCC(C)(C)O3)cn1` [Example Q22, N-(5-(2,2-dimethyl-2,3-dihydro-[1,4]dioxino[2,3-b]pyridin-6-yl)-4-((6-(methylsulfonyl)-4-morpholinopyridin-2-yl)amino)pyridin-2-yl)acetamide], the IC50 with pSTAT5/GM-CSF amounted to 3960 nM; in assay [1], 0.584 nM; in assay [2], 0.025 nM. For the same compound, the “Selectivity fold (TYK2/JAK2)” value in the assay with pSTAT5/GM-CSF was 6779 fold.

Take `COCc1ccnc(-c2cnc(NC(C)=O)cc2Nc2cccc(S(C)(=O)=O)n2)c1` [Example B8, N-(4-(methoxymethyl)-4′-((6-(methylsulfonyl)pyridin-2-yl)amino)-[2,3′-bipyridin]-6′-yl)acetamide]: the IC50 is more than 10000 nM with pSTAT5/GM-CSF, 1.68 nM in assay [1] and 0.047 nM in assay [2]. In assay [1], the “Selectivity fold (TYK2/JAK2)” value is more than 5952 fold.

Take `CC(=O)Nc1cc(Nc2cc(C)cc(S(C)(=O)=O)n2)c(-c2ccc3c(n2)OCCO3)cn1` [Example Q3, N-(5-(2,3-dihydro-[1,4]dioxino[2,3-b]pyridin-6-yl)-4-((4-methyl-6-(methylsulfonyl)pyridin-2-yl)amino)pyridin-2-yl)acetamide]: the IC50 was more than 10000 nM in the assay with pSTAT5/GM-CSF, 1.14 nM in assay [1] and 0.023 nM in assay [2]. Besides, the “Selectivity fold (TYK2/JAK2)” value with pSTAT5/GM-CSF is listed as more than 8771 fold.

Consider `CCn1ccc(-c2cnc(NC(C)=O)cc2Nc2cc(C)cc(S(C)(=O)=O)c2)n1` [Example M11, N-(5-(1-ethyl-1H-pyrazol-3-yl)-4-((3-methyl-5-(methylsulfonyl)phenyl)amino)pyridin-2-yl)acetamide], for which the IC50 with pSTAT5/GM-CSF was more than 10000 nM; in assay [1] it was 9.03 nM; in assay [2] it was 0.034 nM. In addition, the “Selectivity fold (TYK2/JAK2)” value in the assay with pSTAT5/GM-CSF is given as more than 1107 fold.

Regarding `CC(=O)Nc1cc(Nc2cc(OCCO)cc(S(C)(=O)=O)n2)c(-c2ccc(OC3CCOC3)cn2)cn1` (centres unmarked) [Example B22, N-(4′-((4-(2-hydroxyethoxy)-6-(methylsulfonyl)pyridin-2-yl)amino)-5-((tetrahydrofuran-3-yl)oxy)-[2,3′-bipyridin]-6′-yl)acetamide], the values for the IC50 (in the assay on pSTAT5/GM-CSF; in assay [1]; in assay [2]) were 2490 nM, 12.6 nM and 0.025 nM, respectively. In assay [1], the “Selectivity fold (TYK2/JAK2)” value is recorded as 197 fold.

On to `CCn1ccc(-c2cnc(NC(C)=O)cc2Nc2cc(OCCO)cc(S(C)(=O)=O)c2)n1` [Example M15, N-(5-(1-ethyl-1H-pyrazol-3-yl)-4-((3-(2-hydroxyethoxy)-5-(methylsulfonyl)phenyl)amino)pyridin-2-yl)acetamide], for which the IC50 with pSTAT5/GM-CSF is more than 10000 nM; in assay [1], 10.2 nM; in assay [2] it was 0.048 nM. Further, in the assay with pSTAT5/GM-CSF, the “Selectivity fold (TYK2/JAK2)” value is given as more than 977 fold.

Turning to `CC(=O)Nc1cc(Nc2cccc(S(C)(=O)=O)n2)c(-c2ccc(N3CCOC(C)(C)C3)cn2)cn1` [Example B12, N-(5-(2,2-dimethylmorpholino)-4′-((6-(methylsulfonyl)pyridin-2-yl)amino)-[2,3′-bipyridin]-6′-yl)acetamide], the figures for the IC50 (in the assay with pSTAT5/GM-CSF; in assay [1]; in assay [2]) were 610 nM, 0.74 nM and 0.034 nM, respectively. Moreover, the “Selectivity fold (TYK2/JAK2)” value in assay [1] is 824 fold.
